Laboratory results as given in patent US5328917A, “Piperidine compounds for treating anoxia, cerebral ischemia migraine or epilepsy” (Novo Nordisk A/S, priority 1990, dated 1994).
Where a name gives a salt, the structure may show the parent alone.

system: peripheral calcium uptake, e.g. in blood vessels and the heart; test: not given; settings: well known calcium antagonists; cited from earlier work

Row | Structure (SMILES) | activity against peripheral calcium uptake
1 | COc1ccc([C@@H]2Sc3ccccc3N(CCN(C)C)C(=O)[C@@H]2OC(C)=O)cc1 [Diltiazem] | have activity against peripheral calcium uptake
2 | COC(=O)C1=C(C)NC(C)=C(C(=O)OC)C1c1ccccc1[N+](=O)[O-] [Nifedipine] | have activity against peripheral calcium uptake
3 | COc1ccc(CCN(C)CCCC(C#N)(c2ccc(OC)c(OC)c2)C(C)C)cc1OC (centres unmarked) [Verapamil] | have activity against peripheral calcium uptake

system: voltage operated calcium channels; test: Inhibition of depolarization-stimulated 45Ca uptake into brain synaptosomes (crude P2 fraction of cerebral cortex); format: biochemical, male Wistar rat; settings: rat cerebral cortex synaptosomes; KCl-depolarized, corrected for basal uptake; 15 s uptake at 37° C.; estimated from dose response curves
Description: The pharmacological properties of the compounds of the invention can be illustrated by determining their capability to inhibit calcium uptake into brain synaptosomes. Depolarization of neuronal membranes leads to an opening of socalled "voltage operated calcium channels" (VOC) in the membranes which allows a massive influx of calcium from the extracellular space. A crude synaptosomal preparation (socalled P2 fraction) contains small vesicles surrounded by neuronal membrane and it is possible in such a preparation to study a depolarization-induced opening of VOC. In the present model ^45 Ca influx is induced in the synaptosomes by depolarization with elevated potassium concentrations, and the effect of test substances on this stimulated uptake is studied ([…]. and Blaustein, M. P., Mol. […] A male Wistar rat is decapitated and the cerebral cortex removed and homogenized in 10 ml. of ice-cold 0.32M sucrose using a glass homogenizer with a teflon pestle. All subsequent steps for isolation of synaptosomes are done at 0°-4° C. […] This pellet (P2) is resuspended in 0.32M sucrose (5 ml per g of original tissue) with a teflon pestle. […] The tubes are pre-incubated for 30 min on ice and then for 6 min at 37° C. in a water bath. […] The incubation is continued for 15 s. […] The amount of radioactivity on the filter disc is determined by liquid scintillation spectrometry. Test substances are dissolved in 10 ml of 48% ethanol at a concentration of 0.44 mg/ml. Dilution are made in 48% ethanol to give final concentrations of 0.1, 0.3, 1, 3 and 10 μg/ml. Experiments are performed in triplicate. […] The IC50 value is estimated from dose response curves.

Row | IC50 (concentration of test substance which inhibits 50% of stimulated uptake of 45Ca) | Structure (SMILES)
4 | 5.0 µg/mL | CCCCN1CC[C@@H](c2ccc(N(C)C)cc2)[C@H](COc2ccc3c(c2)OCO3)C1.Cl (racemic) [Compound 15, (+-)trans-1-butyl-4-(4-dimethylaminophenyl)-3-(3,4-methylenedioxyphenoxymethyl)piperidine, hydrochloride]
5 | 7.4 µg/mL | CCCCN1CC[C@@H](c2ccc(N(C)C)cc2)[C@H](COc2cccc(C(F)(F)F)c2)C1.Cl (racemic) [Compound 17, (+-)trans-1-butyl-4-(4-dimethylaminophenyl)-3-(3-trifluoromethylphenoxymethyl)piperidine, hydrochloride]
6 | 3.8 µg/mL | CCCCN1CC[C@@H](c2ccc(N(C)C)cc2)[C@H](COc2ccc(Cl)cc2)C1 (relative stereo) [Compound 51, (+-) trans 1-butyl-3-(4-chlorophenoxymethyl)-4-(4-dimethylaminophenyl) piperidine, hydrochloride]
7 | 2.8 µg/mL | CCCCN1CC[C@@H](c2ccc(N(C)C)cc2)[C@H](COc2ccc(Cl)c(Cl)c2)C1 (relative stereo) [Compound 52, (+-) trans 1-butyl-3-(3,4-dichlorophenoxymethyl) 4-(4-dimethylaminophenyl)piperidine, HCl]
8 | 3.2 µg/mL | CCCCN1CC[C@@H](c2ccc(N(C)C)cc2)[C@H](COc2ccc([N+](=O)[O-])cc2)C1 (relative stereo) [Compound 57, (+-) trans 1-butyl-4-(4-dimethylaminophenyl)-3-(4-nitrophenoxymethyl) piperidine, HCl]
9 | 7.2 µg/mL | O=[N+]([O-])c1ccc([C@@H]2CCNC[C@H]2COc2cccc(C(F)(F)F)c2)cc1 (single isomer, unassigned) [Compound 9, (31)trans-4-(4-nitrophenyl)-3-(3-trifluoromethylphenoxymethyl)piperidine, hydrochloride]
10 | 8.9 µg/mL | CCCCCN1CC[C@@H](c2ccc(N)cc2)[C@H](COc2ccc3c(c2)OCO3)C1.Cl (single isomer, unassigned) [Compound 10, (+)trans-4-(4-aminophenyl)-3-(3,4-methylenedioxyphenoxymethyl)-1-pentylpiperidine, hydrochloride]
11 | 6.4 µg/mL | CCCCCN1CC[C@@H](c2ccc(F)cc2)[C@H](COCc2ccc(C(F)(F)F)cc2)C1 (single isomer, unassigned) [Compound 36, (-) trans-4-(4-fluorophenyl)-1-pentyl-3-(4-trifluoromethylbenzyloxymethyl)-piperidine, HCl]
12 | 5.5 µg/mL | CCCCCN1CC[C@@H](c2ccc(F)cc2)[C@H](COCc2cccc(C(F)(F)F)c2)C1 (single isomer, unassigned) [Compound 60, (-)trans-4-(4-fluorophenyl)-1-pentyl-3-(3-trifluoromethylbenzyloxymethyl)-piperidine, HCl]
13 | 2.7 µg/mL | CCCCN1CCC(c2ccccc2)C(CNCc2ccc(OC)cc2)C1 (centres unmarked) [Compound 20, 1-butyl-3-(4-methoxybenzylaminomethyl)-4-phenylpiperidine, HCl]
14 | 4 µg/mL | CCCCN1CCC(c2ccccc2)C(CNc2ccc(C(F)(F)F)cc2)C1 (centres unmarked) [Compound 22, 1-butyl-3-(4-trifluoromethylphenylaminomethyl)-4-phenylpiperidine, HCl]

Row | Structure (SMILES) | IC50 (concentration of test substance which inhibits 50% of stimulated uptake of 45Ca)
15 | CCCCN1CC[C@@H](c2ccc(N(C)C)cc2)[C@H](COc2ccc(C(F)(F)F)cc2)C1.Cl (racemic) [Compound 11, (+-)trans-1-butyl-4-(4-dimethylaminophenyl)-3-(4-trifluoromethylphenoxymethyl)piperidine, hydrochloride] | 4.9 µg/mL

same assay, conditions: rat cerebral cortex synaptosomes; KCl-depolarized, corrected for basal uptake; 15 s uptake at 37° C.; estimated from dose response curves; dihydrochloride

Row | Structure (SMILES) | IC50 (concentration of test substance which inhibits 50% of stimulated uptake of 45Ca)
16 | CCCCN1CC[C@@H](c2ccc(N(C)C)cc2)[C@H](COc2ccc(C(F)(F)F)cc2)C1.Cl.Cl (single isomer, unassigned) [Compound 64, (+)-trans-1-butyl-4-(4-dimethylaminophenyl)-3-(4-trifluoromethylphenoxymethyl)piperidine dihydrochloride] | 4.2 µg/mL
17 | CCCCN1CC[C@@H](c2ccc(N(C)C)cc2)[C@H](COc2ccc(C(F)(F)F)cc2)C1.Cl.Cl (single isomer, unassigned) [Compound 65, (-)-trans-1-butyl-4-(4-dimethylaminophenyl)-3-(4-trifluoromethylphenoxymethyl)piperidine dihydrochloride] | 6.5 µg/mL
